The numbers were not newly measured in patent US20200038305A1, “Sunscreen or Sunblock Composition” (Divios LLC, priority 2018, published 2020), which cites them from elsewhere.

Broadly, the Aqueous solubility is how much of the substance goes into solution per volume. On to `C=C(C)[C@@H]1CCC(C)=C[C@H]1c1c(O)cc(CCCCC)cc1O` [CBD, cannabidiol], for which the Aqueous solubility is 10 µg/mL.
